The text below walks through data of BindingDB's records for doi:10.1021/jm011020u (Instituto De Quimica Medica (Csic), 2002).

Bounds are passed on as bounds.

Sequence of Protein kinase C beta type (P68403 whole entry): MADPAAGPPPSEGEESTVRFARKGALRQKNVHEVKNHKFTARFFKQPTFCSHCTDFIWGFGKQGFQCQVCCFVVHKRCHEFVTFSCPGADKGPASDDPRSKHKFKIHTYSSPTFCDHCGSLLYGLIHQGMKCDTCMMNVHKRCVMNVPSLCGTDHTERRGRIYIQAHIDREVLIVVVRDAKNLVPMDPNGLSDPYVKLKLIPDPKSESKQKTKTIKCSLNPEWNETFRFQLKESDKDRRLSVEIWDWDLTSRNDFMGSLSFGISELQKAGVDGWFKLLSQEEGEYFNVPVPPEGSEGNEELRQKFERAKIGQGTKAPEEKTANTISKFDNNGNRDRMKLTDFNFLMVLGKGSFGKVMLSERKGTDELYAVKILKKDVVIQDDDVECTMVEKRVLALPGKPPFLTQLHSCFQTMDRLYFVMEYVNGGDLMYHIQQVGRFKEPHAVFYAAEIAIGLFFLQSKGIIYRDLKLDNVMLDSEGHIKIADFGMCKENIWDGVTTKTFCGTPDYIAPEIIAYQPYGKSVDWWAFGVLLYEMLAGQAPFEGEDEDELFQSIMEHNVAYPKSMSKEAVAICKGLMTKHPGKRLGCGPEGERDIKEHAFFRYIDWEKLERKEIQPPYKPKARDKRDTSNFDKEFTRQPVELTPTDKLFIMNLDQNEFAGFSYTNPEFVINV

The target in one assay is T1, Glycogen synthase kinase-3 beta [7-25] (Oryctolagus cuniculus, UniProt G1T8E2).
T1 construct: 7-25
The assay can be described thus: GSK-3 Inhibition Assay. The settings on record: 37 °C.
Protocol: 32P incorporation was measured with a scintillation counter. The GSK-3 beta activity was expressed in picomoles of phosphate incorporated in GS-1 per 20 min or in percentage of maximal activity.
Compound `Cn1sc(=O)n(-c2cccc3ccccc23)c1=O` [2-methyl-4-(1-naphthyl)-1,2,4-thiadiazolidine-3,5-dione] gave an IC50 of 3 µM.

`O=c1sn(-c2ccccc2)c(=S)n1-c1ccccc1` [2,4-diphenyl-5-oxo-1,2,4-thiadiazolidine-3-thione] registered an IC50 of 8 µM.

Turning to `CCNC(=O)/N=c1\sn(CC)c(=O)n1-c1ccccc1` [ethyl-(2-ethyl-3-oxo-4-phenyl-1,2,4-thiadiazolidin-5-ylidene)urea], the midpoint of inhibition, the IC50, lay at 75 µM.

With `O=c1sn(Cc2ccccc2)c(=S)n1Cc1ccccc1` [2,4-Dibenzyl-5-oxo-1,2,4-thiadiazolidine-3-thione], half-maximal inhibition (IC50) required 10 µM.

`Cn1sc(=O)n(-c2ccc(C(F)(F)F)cc2)c1=O` [2-methyl-4-[4-(trifluoromethyl)phenyl]-1,2,4-thiadiazolidine-3,5-dione] showed an IC50 of 6 µM.

The compound `CCn1c(=S)n(C)s/c1=N\c1cccnc1` [(5Z)-4-ethyl-2-methyl-5-(pyridin-3-ylimino)-1,2,4-thiadiazolidine-3-thione] returned an IC50 of 10 µM.

Compound `Cn1sc(=O)n(-c2ccc(Cl)cc2)c1=O` [4-(4-Chlorophenyl)-2-methyl-1,2,4-thiadiazolidine-3,5-dione] showed an IC50 of 4 µM.

In the case of `CCOC(=O)/N=c1\sn(C(=O)OCC)c(=S)n1-c1ccccc1` [ethyl (5Z)-5-[(ethoxycarbonyl)imino]-4-phenyl-3-sulfanylidene-1,2,4-thiadiazolidine-2-carboxylate], the IC50 came to 100 µM.

`Cc1ccc(-n2c(=O)sn(C)c2=O)cc1` [4-(4-Methylphenyl)-2-methyl-1,2,4-thiadiazolidine-3,5-dione] showed an IC50 of 5 µM.

In turn, `CCn1sc(=O)n(CC)c1=S` [2,4-diethyl-3-thioxo-1,2,4-thiadiazolidin-5-one] yielded an IC50 of 20 µM.

Regarding `CCn1sc(=O)n(Cc2ccccc2)c1=S` [4-Benzyl-2-ethyl-5-oxo-1,2,4-thiadiazolidine-3-thione], the IC50 came to 6 µM. This IC50 lies about 3.3-fold lower than the previous one.

`CCn1sc(=N)n(-c2ccccc2)c1=O` [2-Ethyl-3-oxo-4-phenyl-1,2,4-thiadiazolidin-5-imine] registered an IC50 of 65 µM.

`Cn1sc(=O)n(-c2ccc(F)cc2)c1=O` [4-(4-Fluorophenyl)-2-methyl-1,2,4-thiadiazolidine-3,5-dione] gave an IC50 of 4 µM.

The same assay, now with this note: pH 7.5; 37 °C.
`Cn1sc(=O)n(C2CCCCC2)c1=O` [4-Cyclohexyl-2-methyl-1,2,4-thiadiazolidine-3,5-dione] returned an IC50 greater than 100 µM.

For `Cn1sc(=O)n(-c2ccccc2Br)c1=O` [4-(2-Bromophenyl)-2-methyl-1,2,4-thiadiazolidine-3,5-dione], the IC50 stood at 6 µM. This counts as single-digit micromolar.

In turn, `Cn1sc(=O)n(-c2ccc(Br)cc2)c1=O` [4-(4-Bromophenyl)-2-methyl-1,2,4-thiadiazolidine-3,5-dione] displayed an IC50 of 3 µM.

Consider `Cn1sc(=O)n(-c2cccc(Br)c2)c1=O` [4-(3-Bromophenyl)-2-methyl-1,2,4-thiadiazolidine-3,5-dione], for which the IC50 amounted to 4 µM.

`CCn1c(=O)sn(C)c1=O` [4-Ethyl-2-methyl-1,2,4-thiadiazolidine-3,5-dione] had an IC50 of 5 µM. The IC50 values of the last two compounds are within 1.5-fold of each other.

As to `CCn1sc(=O)n(Cc2ccccc2)c1=O`, half-maximal inhibition (IC50) required 7 µM. The IC50 values of the last two compounds are within 1.5-fold of each other.

`CCn1c(=O)sn(C2CCCCC2)c1=O` [2-Cyclohexyl-4-ethyl-1,2,4-thiadiazolidine-3,5-dione] gave a half-inhibitory concentration (IC50) of 10 µM.

On to `CCn1c(=O)sn(C(C)C)c1=O` [4-ethyl-2-(propan-2-yl)-1,2,4-thiadiazolidine-3,5-dione], for which the IC50 was 35 µM.

On to `Cn1sc(=O)n(-c2ccccc2)c1=O` [2-methyl-4-phenyl-1,2,4-thiadiazolidine-3,5-dione], for which the IC50 was 2 µM.

For `O=c1sn(Cc2ccccc2)c(=O)n1Cc1ccccc1` [2,4-Dibenzyl-1,2,4-thiadiazolidine-3,5-dione], half-maximal inhibition (IC50) required 10 µM.

`CCCn1sc(=O)n(CC)c1=O` [4-Ethyl-2-propyl-1,2,4-thiadiazolidine-3,5-dione] displayed an IC50 of 10 µM. In other words, the double-digit micromolar range.

In turn, `CCn1sc(=O)n(CC)c1=O` [2,4-Diethyl-1,2,4-thiadiazolidine-3,5-dione] registered an IC50 of 25 µM. Against the preceding compound, the IC50 is about 2.5-fold higher.

The next assay addresses Protein kinase C beta type (Rattus norvegicus, UniProt P68403). Nature of the assay: PKC Inhibition Assay. The settings on record: pH 7.5; 37 °C. As for the experimental part: Kinase activities were assayed in buffers containing substrate, enzyme, and inhibitor at 37 °C in the presence of 10 uM ATP/ [gamma-32P] ATP. 32P incorporation was measured with a scintillation counter. The IC50 is the inhibitor concentration at which a 50% of enzyme inhibition occurs.
As to `Cn1sc(=O)n(Cc2ccccc2)c1=O` [4-Benzyl-2-methyl-1,2,4-thiadiazolidine-3,5-dione], the IC50 is greater than 100 µM.

A further assay addresses cAMP-dependent protein kinase catalytic subunit alpha (Bos taurus, UniProt P00517). The assay can be described thus: Kinase Inhibition Assay. The conditions noted are these: pH 7.5; 37 °C.
Take `Cn1sc(=O)n(Cc2ccccc2)c1=O` [4-Benzyl-2-methyl-1,2,4-thiadiazolidine-3,5-dione]: the IC50 is greater than 100 µM.

As a reminder, the IC50 is the midpoint of a concentration-inhibition curve. Read a low IC50 as higher potency.
